Data published in patent US20040033941A1, “Immunosuppression using piceatannol and a calcineurin inhibitor” (priority 2003, published 2004).
“Also recorded” adds a separate entry of the source.

What was measured:
transplanted organ = assay: In vivo use of piceatannol alone as an immunosuppressive
Syk kinase = settings: J. Oliver et al., J. Biol. Chem. 1994; mast cell/allergy studies; cited from earlier work
[1] = test system: hearts from ACI rats transplanted into Lewis rats; assay: Heterotopic heart transplant, graft survival; type: in vivo, rat; settings: at the specified dosages (30 mg/kg piceatannol, 2 mg/kg cyclosporin A)
Method: (§1) In vivo studies were conducted using piceatannol obtained from Peninsula Lab. […] We examined the ability of piceatannol/calcineurin mixtures to prolong graft survival. Donor organs from ACI rats were transplanted into Lewis rats.
Prior to transplantation, piceatannol (30 mg/kg) was administered intravenously for three days into one selection of Lewis rats via a catheter placed in the right jugular vein.
At day 3, hearts from ACI rats were heterotopically transplanted into the abdomen of the Lewis rats. […] Following transplantation, fascia and muscle were closed with absorbable suture and skin was closed with nylon.
After surgery animals were placed on a warm pad and observed until they awakened. The animals were then placed in cages in a warm environment with wood chip bedding, and provided rodent chow. To relieve pain, Buprenorphine was also given to the animal. Toxicity in animals was monitored by measuring the blood levels of creatinine and ALT, indicators of kidney and liver function, respectively. Drug administration then continued for an additional seven days after the transplant surgery (and was then discontinued).
In the case of heart transplants, rejection was considered complete when no heart beat was palpable with respect to the transplanted organ. This was confirmed by laparotomy and direct inspection.

T and B cell activation = assay: T and B cell activation; type: cell-based; settings: both in vitro and in vivo
[2] = test system: kidneys from ACI rats transplanted into Lewis rats; type: in vivo
Method: as §1
In other experiments, kidneys from ACI rats were transplanted into Lewis rats. Drug administration continued for an additional seven days after transplant at the same levels. From day 8 through day 60 post-transplant administration continued, albeit with piceatannol reduced to 10 mg/kg/day. Thereafter, drug administration ceased.
Animals were anesthetized. The lower abdomen of the donor was shaved and surgically prepared and a long midline incision was made in the abdominal wall. The left kidney and left ureter, aorta, and vena cava were dissected, and suprarenal and gonadal veins ligated and cut. After ligating the suprarenal aorta and vena cava, a hole made in distal aorta and left kidney was flushed in situ with 3 ml of heparinized cold Euro-Collins' solution. The left kidney and left ureter were removed with an aortic cuff and vena cava patched and kept on ice.
After the lower abdomen of the recipient was shaved and surgically prepared, the recipient animal underwent a left nephrectomy via a long midline incision under inhalation anesthesia, and abdominal aoerta and vena cava were prepared for anastomosis. […]

Oc1cc(O)cc(/C=C/c2ccc(O)c(O)c2)c1 [piceatannol, 3,4,3′,5′-tetrahydroxy-trans-stilbene]
tolerability / toxicity of piceatannol alone (transplanted organ; 75 mg/kg of body weight per day): not well tolerated; also recorded: some toxicity was noted | transplanted organ survival, piceatannol alone (transplanted organ; in vivo use of piceatannol): prolongs transplanted organ survival | inhibition of Syk kinase (Syk kinase): very effective inhibitor | prolongation of heart graft survival (in words) [1]: only minimal prolongation effect | T and B cell activation (T and B cell activation): inhibits | prolonging kidney allograft survival (in words) ([2]; piceatannol 30 then 10 mg/kg/day IV, CsA 2 mg/kg/day IM, day -3 to +60, rejection = serum creatinine over 2 mg/dl or death): not effective | histological analysis of transplanted kidneys ([2]; single-agent groups, data not shown): signs of acute rejection
